For orientation: GI50 means the concentration that inhibits growth by half.

The structures appear in SMILES notation.

In one data set the test system is HeLa cells. Put plainly: LIVE/DEAD cytotoxicity assay, inhibition of cell proliferation. The data set is classed as cell-based, human. The conditions noted are these: Homo sapiens; 48 hours of incubation, calcein-AM fluorescence, cell growth reduced by 50% compared to control; read-out: log GI50 values (M), HeLa cells (converted). Here is the method:
(§1) The compounds of the general formula (I) according to the invention were tested for a possible cytotoxic or proliferation-inhibiting activity on the human tumour cell lines HeLa, SW620 and A375 (all from ATTC, American Type Culture Collection). To this end, the cells were plated in microtitre plates from Greiner (Manufacturer No. 781092) at a cell density of 1000 cells/microtitre plate well and cultivated in cell culture medium at 37° C. under a 5% carbon dioxide atmosphere. Cell culture media and additives were purchased from Invitrogen and the foetal calf serum from Biochrom. The cell culture media for Hela and A375 cells were used as stated by ATCC (HeLa: MEM, Order No. 10370-047, with 1% sodium bicarbonate, 1% non-essential amino acids, 1% sodium pyruvate, 10% foetal calf serum, 0.1% gentamycin; A375: DMEM, Order No. 41965-039, 2% sodium bicarbonate, 1% L-Glutamax, 10% foetal calf serum, 0.1% gentamycin). The culture medium for the SW620 cells consisted of DMEM, Order No. 41965-039, 1% non-essential amino acids, 10% foetal calf serum, 0.1% gentamycin.
24 hours after the cells had been plated in the microtitre plates, various concentrations of at most 100 μM down to a minimum concentration of 5 nM of the test compounds were added to the cells. […]
After a further 48 hours of incubation, the cells were washed with medium and analysed with the aid of a two-colour fluorescence cytotoxicity/viability test (LIVE/DEAD viability/cytotoxicity ASSAY kit from Molecular Probes, Order No. L-3224), according to the instructions of the manufacturer. […] The number of live cells was analysed by measuring the green fluorescence of the live dye calcein-AM as a component of the LIVE/DEAD reagent using a fluorescence plate reader (Flexstation, from Molecular Devices) at an excitation wavelength of 485 nm and an emission wavelength of 525 nm (cf. Oral, H. B. Endothelium 6, (1998), 143-151).
Cells only with cell culture medium, without added test compounds, were treated in parallel and analysed as growth controls. […]
Take `CC(=O)O[C@H]1C(=O)[C@@]2(C)[C@H]([C@H](OC(=O)c3ccccc3)[C@]3(O)C[C@H](OC(=O)[C@H](O)[C@@H](NC(=O)c4ccccc4)c4ccccc4)C(C)=C1C3(C)C)[C@]1(OC(C)=O)CO[C@@H]1C[C@@H]2O` [Taxol]: the 50% growth inhibitory concentration (GI50) is 1e-07 M.

A further data set concerns SW620 cells. Described as above. It counts as cell-based, human. Conditions: Homo sapiens, SW-620; 48 hours of incubation, calcein-AM fluorescence, cell growth reduced by 50% compared to control; read-out: log GI50 values (M), SW620 cells (converted). Here is the method: as §1
(§2) 24 hours after the cells had been plated in the microtitre plates, various concentrations of at most 100 μM down to a minimum concentration of 5 nM of the test compounds were added to the cells. Stock solutions of the test compounds (10 mM) were prepared in DMSO and stored at −20° C.; for the cytotoxicity tests, the test compounds were diluted in the appropriate cell culture medium.
(§3) After a further 48 hours of incubation, the cells were washed with medium and analysed with the aid of a two-colour fluorescence cytotoxicity/viability test (LIVE/DEAD viability/cytotoxicity ASSAY kit from Molecular Probes, Order No. L-3224), according to the instructions of the manufacturer. To this end, the medium was aspirated and in each case 30 μl of LIVE/DEAD reagent per microtitre plate well were added to the cells, which were then incubated for 30 minutes. The cells were then washed with PBS (phosphate-buffered saline). The number of live cells was analysed by measuring the green fluorescence of the live dye calcein-AM as a component of the LIVE/DEAD reagent using a fluorescence plate reader (Flexstation, from Molecular Devices) at an excitation wavelength of 485 nm and an emission wavelength of 525 nm (cf. Oral, H. B. Endothelium 6, (1998), 143-151).
(§4) Cells only with cell culture medium, without added test compounds, were treated in parallel and analysed as growth controls. The reference compounds used for anti-tumour agents having a cytotoxic or proliferation-inhibiting action were colchicine (from Merck/Calbiochem, Order No. 234115) and Taxol (baccatin III N-benzyl-b-phenylisoserine ester, from Merck/Calbiochem, Order No. 580555) (cf. Schiff, P. B. and Horwitz, S. B., Proceedings of the National Academy of Sciences of the U.S.A. 77, 1561-1565, 1980; Holmes, F. A. et al., Journal of the National Cancer Institute 83, 1797-1805, 1991).
(§5) The cytotoxic effects of the test compounds were expressed as logarithmic GI50 values (growth-inhibiting logarithmic concentration value at which a cell growth reduced by 50% compared to the control without test compounds was measured (cf. Xia et al., Journal of Medicinal Chemistry 44, 3932-3936, 2001; Smith, J. A. et al., Gynecologic Oncology 98, 141-145, 2005)).
`CC(=O)O[C@H]1C(=O)[C@@]2(C)[C@H]([C@H](OC(=O)c3ccccc3)[C@]3(O)C[C@H](OC(=O)[C@H](O)[C@@H](NC(=O)c4ccccc4)c4ccccc4)C(C)=C1C3(C)C)[C@]1(OC(C)=O)CO[C@@H]1C[C@@H]2O` [Taxol]: the GI50 was 1e-07 M.

The test system of a further data set is A375 cells. Described as above. The data set is classed as cell-based, human. Conditions: Homo sapiens, A-375; 48 hours of incubation, calcein-AM fluorescence, cell growth reduced by 50% compared to control; read-out: log GI50 values (M), A375 cells (converted). Here is the method:
as §1, §2, §3, §4, §5
Turning to `CC(=O)O[C@H]1C(=O)[C@@]2(C)[C@H]([C@H](OC(=O)c3ccccc3)[C@]3(O)C[C@H](OC(=O)[C@H](O)[C@@H](NC(=O)c4ccccc4)c4ccccc4)C(C)=C1C3(C)C)[C@]1(OC(C)=O)CO[C@@H]1C[C@@H]2O` [Taxol], the GI50 is 1.26e-07 M.

Tested on in another data set: not listed separately
Kind of data set: logP determination by HPLC on a reversed-phase column (C 18) at pH 2.7. It counts as physicochemical. Conditions: reversed-phase C 18, pH 2.7, preparation examples.
`Cc1ccc2c(c1)C1CCN(C2)C(=O)[C@H]2OC(C)(C)O[C@@H]2CC1=O` (stereo partly drawn) [Example I-5, (3aS,13aR)-2,2,9-Trimethyl-6,11,13,13a-tetrahydro-4H-5,11-ethanol[1,3]dioxolo[4,5-d][2]benzazecine-4,12(3aH)-dione]: the “logP (pH 2.7)” value is on record as 1.92. On the same count and under the same terms, under `Cc1ccc2c(c1)C1(O)CCN(C2)C(=O)[C@H]2OC(C)(C)O[C@@H]2CC1=O` (stereo partly drawn) [Example I-1, (3aS,13aR)-11-Hydroxy-2,2,9-trimethyl-6,11,13,13a-tetrahydro-4H-5,11-ethano[1,3]dioxolo[4,5-d][2]benzazecin-4,12(3aH)-one] stands 1.61.

The data set is the same for the next values; noted with them: reversed-phase C18 HPLC column, reversed-phase C 18, pH 2.7, Table 2, starting materials of formula (VI), read-out: Physical data: logP values.
With `C=CCCN(Cc1ccc(C)cc1Br)C(=O)[C@H]1OC(C)(C)O[C@@H]1CC=C` [VI-1, (4S,5R)-5-Allyl-N-(2-bromo-4-methylbenzyl)-N-but-3-en-1-yl-2,2-dimethyl-1,3-dioxolane-4-carboxamide], the chromatographic logP came to 5.27. Same read-out and setting: next, `C=CCCN(Cc1cc(F)ccc1Br)C(=O)[C@H]1OC(C)(C)O[C@@H]1CC=C` [VI-2, (4S,5R)-5-allyl-N-(2-bromo-5-fluorobenzyl)-N-but-3-en-1-yl-2,2-dimethyl-1,3-dioxolane-4-carboxamide]: 4.83.

Still in this data set, the particulars now being: reversed-phase C18 HPLC column, reversed-phase C 18, pH 2.7, Table 3, starting materials of formula (VII), read-out: logP (pH 2.7).
Take `COc1cc(Br)c(CN2CCC=CCCCC2=O)cc1OC` [VII-4, 1-(2-bromo-4,5-dimethoxybenzyl)-1,3,4,5,8,9-hexahydro-2H-azonin-2-one]: the chromatographic logP is 2.78.

For the compound `CC1(C)O[C@@H]2C(=O)N(Cc3cc(F)ccc3Br)CCC=CC[C@H]2O1` [VII-2, (3aS,10aR)-5-(2-bromo-5-fluorobenzyl)-2,2-dimethyl-3a,5,6,7,10,10a-hexahydro-4H-[1,3]dioxolo[4,5-c]azonin-4-one], the chromatographic logP was 3.09.

As for `CC1(C)O[C@@H]2C(=O)N(Cc3ccncc3Br)CCC=CC[C@H]2O1` [VII-3, (3aS,10aR)-5-[(3-bromopyridin-4-yl)methyl]-2,2-dimethyl-3a,5,6,7,10,10a-hexahydro-4H-[1,3]dioxolo[4,5-c]azonin-4-one], the chromatographic logP stood at 1.96. For `Cc1ccc(CN2CCC=CC[C@H]3OC(C)(C)O[C@@H]3C2=O)c(Br)c1` [VII-1, (3aS,10aR)-5-(2-Bromo-4-methylbenzyl)-2,2-dimethyl-3a,5,6,7,10,10a-hexahydro-4H-[1,3]dioxolo[4,5-c]azonin-4-one], the chromatographic logP was found to be 3.41. Same read-out and setting: under `O=C1CCCC=CCCN1Cc1cc2c(cc1Br)OCO2` [VII-5, 1-[(6-Bromo-1,3-Benzodioxol-5-yl)Methyl]-1,3,4,5,8,9-Hexahydro-2H-azonin-2-one] stands 2.94.

The same data set, now with this note: reversed-phase C18 HPLC column, reversed-phase C 18, pH 2.7, preparation examples, read-out: logP (pH 2.7).
Regarding `CC1(C)O[C@@H]2C(=O)N3CCC(=CC[C@H]2O1)c1cc2c(cc1C3)OCO2` [Example Ia-6, (3aS,14aR)-2,2-Dimethyl-3a,6,14,14a-tetrahydro-4H-5,12-ethanobis[1,3]dioxolo[4,5-d:4′,5′-k][2]benzazecin-4-one], the chromatographic logP is 2.19. As for `CC1(C)O[C@@H]2C(=O)N3CCC(=CC[C@H]2O1)c1ccc(F)cc1C3` [Example Ia-2, (3aS,13aR)-8-Fluoro-2,2-dimethyl-3a,6,13,13a-tetrahydro-4H-5,11-ethano[1,3]dioxolo[4,5-d][2]benzazecin-4-one], the chromatographic logP turned out to be 2.39. As for `CC1(C)O[C@@H]2C(=O)N3CCC(C(=O)C[C@H]2O1)c1cc2c(cc1C3)OCO2` (stereo partly drawn) [Example I-8, (3aS,14aR)-2,2-Dimethyl-6,12,14,14a-tetrahydro-4H-5,12-ethanobis[1,3]dioxolo[4,5-d:4′,5′-k][2]benzazecine-4,13(3aH)-dione], the chromatographic logP came out at 1.6. The same measure, in the same setting: next, `COc1cc2c(cc1OC)C1=CCCCC(=O)N(CC1)C2` [Example Ia-4, 10,11-Dimethoxy-1,4,5,6-tetrahydro-3H-2,8-ethano-2-benzazecin-3-one]: 1.82; `O=C1CCCC(=O)C2(O)CCN1Cc1cc3c(cc12)OCO3` (centres unmarked) [Example I-3, 12-Hydroxy-9,10,12-trihydro-5H-6,12-ethano[1,3]dioxolo[4,5-k][2]benzazecine-7,11(8H)-dione]: 0.99; `Cc1ccc2c(c1)C1=CC[C@H]3OC(C)(C)O[C@@H]3C(=O)N(CC1)C2` [Example Ia-1, (3aS,13aR)-2,2,9-Trimethyl-3a,6,13,13a-tetrahydro-4H-5,11-ethano[1,3]dioxolo[4,5-d][2]benzazecin-4-one]: 2.62.

For the compound `CC1(C)O[C@@H]2C(=O)N3CCC(O)(C(=O)C[C@H]2O1)c1ccc(F)cc1C3` (stereo partly drawn) [Example I-2, (3aS,13aR)-8-Fluoro-11-hydroxy-2,2-dimethyl-6,11,13,13a-tetrahydro-4H-5,11-ethano[1,3]dioxolo[4,5-d][2]benzazecine-4,12(3aH)-dione], the chromatographic logP worked out at 1.49. `Cc1ccc2c(c1)C1CCN(C2)C(=O)[C@@H](O)[C@H](O)CC1=O` (stereo partly drawn) [Example I-9, (4S,5R)-4,5-Dihydroxy-10-methyl-5,6,8-trihydro-1H-2,8-ethano-2-benzazecine-3,7(4H)-dione]: the chromatographic logP came out at 1.33. Still for that read-out and setting: next, `O=C1CCCC=C2CCN1Cc1cc3c(cc12)OCO3` [Example Ia-5, 5,8,9,10-Tetrahydro-7H-6,12-ethano[1,3]dioxolo[4,5-k][2]benzazecin-7-one]: 2.01. On the same count and under the same terms, under `CC1(C)O[C@@H]2C(=O)N3CCC(C(=O)C[C@H]2O1)c1ccc(F)cc1C3` (stereo partly drawn) [Example I-6, (3aS,13aR)-8-Fluoro-2,2-dimethyl-6,11,13,13a-tetrahydro-4H-5,11-ethano[1,3]dioxolo[4,5-d][2]benzazecine-4,12(3aH)-dione] stands 1.69; under `O=C1C[C@@H](O)[C@H](O)C(=O)N2CCC1c1cc3c(cc1C2)OCO3` (some centres unmarked) [Example I-10], 0.89; under `CC1(C)O[C@@H]2C(=O)N3CCC(O)(C(=O)C[C@H]2O1)c1cc2c(cc1C3)OCO2` (stereo partly drawn) [Example I-4, (3aS,14aR)-12-hydroxy-2,2-dimethyl-6,12,14,14a-tetrahydro-4H-5,12-ethanobis[1,3]dioxolo[4,5-d:4′,5′-k][2]benzazecine-4,13(3aH)-dione], 1.38. Take `O=C1CCCC(=O)N2CCC1c1cc3c(cc1C2)OCO3` (centres unmarked) [Example I-7, 9,10,12-Trihydro-5H-6,12-ethano[1,3]dioxolo[4,5-k][2]benzazecine-7,11(8H)-dione]: the chromatographic logP was determined as 1.3.

Regarding `CC1(C)O[C@@H]2C(=O)N3CCC(=CC[C@H]2O1)c1cnccc1C3` [Example Ia-3, (3aS,13aR)-2,2-Dimethyl-3a,6,13,13a-tetrahydro-4H-5,11-ethano[1,3]dioxolo[4,5-c]pyrido[3,4-h]azecin-4-one], the chromatographic logP was found to be 0.49.

The values are drawn from US20090131406A1 (BAYER CROPSCIENCE AG, priority 2005, published 2009).
